Where two headings read alike, the source gives them in different places.

Test [1] has as its target isolated recombinant JAK2 kinase domain (Homo sapiens (Human), UniProt O60674). The test is described as follows: JAK2 enzyme assay (Caliper LabChip, Ki). Type of test: biochemical. As for the experimental part:
(§1) JAK Enzyme Assays were carried out as follows:
The activity of the isolated recombinant JAK1 and JAK2 kinase domain was measured by monitoring phosphorylation of a peptide derived from JAK3 ([…] fluorescently labeled on the N-terminus with 5-carboxyfluorescein) using the Caliper LabChip® technology (Caliper Life Sciences, Hopkinton, Mass.). […] Reactions were incubated at 22° C. in 384-well polypropylene microtiter plates for 30 minutes and then stopped by addition of 25 μL of an EDTA containing solution (100 mM HEPES buffer (pH 7.2), 0.015% Brij-35, 150 mM EDTA), resulting in a final EDTA concentration of 50 mM. After termination of the kinase reaction, the proportion of phosphorylated product was determined as a fraction of total peptide substrate using the Caliper LabChip® 3000 according to the manufacturer's specifications.

Test [2] addresses isolated recombinant JAK1 kinase domain (Homo sapiens (Human), UniProt P23458). Put plainly: JAK1 enzyme assay (Caliper LabChip, Ki). The format is biochemical. The protocol: as §1
The activity of the isolated recombinant JAK1 and JAK2 kinase domain was measured by monitoring phosphorylation of a peptide derived from JAK3 (Val-Ala-Leu-Val-Asp-Gly-Tyr-Phe-Arg-Leu-Thr-Thr, fluorescently labeled on the N-terminus with 5-carboxyfluorescein) using the Caliper LabChip® technology (Caliper Life Sciences, Hopkinton, Mass.). […] Reactions were incubated at 22° C. in 384-well polypropylene microtiter plates for 30 minutes and then stopped by addition of 25 μL of an EDTA containing solution (100 mM HEPES buffer (pH 7.2), 0.015% Brij-35, 150 mM EDTA), resulting in a final EDTA concentration of 50 mM. After termination of the kinase reaction, the proportion of phosphorylated product was determined as a fraction of total peptide substrate using the Caliper LabChip® 3000 according to the manufacturer's specifications. Ki values were then determined using the Morrison tight binding model (Morrison, J. F., Biochim. Biophys. Acta. 185:269-296 (1969); William, J. W. and Morrison, J. F., Meth. Enzymol., 63:437-467 (1979)) modified for ATP-competitive inhibition [Ki=Ki,app/(1+[ATP]/Km,app)].

Chain of isolated recombinant JAK1 kinase domain (P23458 875-1153): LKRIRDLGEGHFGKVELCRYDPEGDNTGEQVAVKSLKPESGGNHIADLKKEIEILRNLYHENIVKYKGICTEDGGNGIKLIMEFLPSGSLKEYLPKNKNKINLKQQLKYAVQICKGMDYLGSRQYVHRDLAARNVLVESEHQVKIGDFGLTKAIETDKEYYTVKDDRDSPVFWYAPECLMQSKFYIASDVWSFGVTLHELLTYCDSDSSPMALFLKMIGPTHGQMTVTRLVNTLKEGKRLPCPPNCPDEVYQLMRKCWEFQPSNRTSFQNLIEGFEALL
Chain of isolated recombinant JAK2 kinase domain (O60674 849-1124): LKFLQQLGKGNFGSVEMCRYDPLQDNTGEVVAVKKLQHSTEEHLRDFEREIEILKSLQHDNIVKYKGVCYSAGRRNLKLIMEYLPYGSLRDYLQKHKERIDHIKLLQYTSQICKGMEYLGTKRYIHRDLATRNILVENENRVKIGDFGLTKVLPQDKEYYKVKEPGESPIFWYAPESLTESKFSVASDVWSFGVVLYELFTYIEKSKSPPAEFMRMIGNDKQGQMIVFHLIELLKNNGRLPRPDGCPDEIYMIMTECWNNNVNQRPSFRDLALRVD

For `N#CC[C@]1(n2cc(C(N)=O)c(NC(=O)C3CC3)n2)CC[C@@H](NC2CC(F)(F)C2)CC1` [Example 173, 1-[1-(cyanomethyl)-4-[(3,3-difluorocyclobutyl)amino]cyclohexyl]-3-(cyclopropanecarbonylamino) pyrazole-4-carboxamide], the inhibition constant Ki (in general, a dissociation constant, usually derived from enzyme kinetics or from competition with a known ligand) turned out to be 71.3 nM in test [1] and 8.7 nM in test [2].

For the compound `N#CC[C@]1(n2cc(C(N)=O)c(NC(=O)C3CC3)n2)CC[C@@H](NC2CCC(F)(F)CC2)CC1` [Example 175, 1-[1-(cyanomethyl)-4-[(4,4-difluorocyclohexyl)amino]cyclohexyl]-3-(cyclopropanecarbonylamino) pyrazole-4-carboxamide], the results for the Ki in test [1] and in test [2] were 321 nM and 14.1 nM, respectively.

As to `N#CC[C@]1(n2cc(C(N)=O)c(NC(=O)C3CC3)n2)CC[C@H](NCc2cccc(F)c2)CC1` [Example 113], the values for the Ki in test [1] and in test [2] were 187 nM and 14.4 nM, respectively.

For the compound `COc1cccc(CN2CCC(CC#N)(n3cc(C(N)=O)c(NC(=O)C4CC4)n3)CC2)c1` [Example 42], the Ki stood at 94.9 nM in test [1] and 7.8 nM in test [2] (read-out: JAK1 Ki).

`CS(=O)(=O)c1cccc(CN2CCC(CC#N)(n3cc(C(N)=O)c(NC(=O)C4CC4)n3)CC2)c1` [Example 70]: the figures for the Ki in test [1] and in test [2] (read-out: JAK1 Ki) were greater than 319 nM and 31 nM, respectively.

In the case of `N#CCC1(n2cc(C(N)=O)c(NC(=O)C3CC34CC4)n2)CCN(CC(F)(F)F)CC1` (stereo not drawn) [Example 25], the inhibition constant (Ki) in test [1] was greater than 319 nM; in test [2] (read-out: JAK1 Ki), 81.2 nM.

With `N#CCC1(n2cc(C(N)=O)c(NC(=O)C3CC3)n2)CCN(Cc2ccc(-n3ccnc3)cc2)CC1` [Example 85], the Ki in test [1] was determined as 170 nM; in test [2] (read-out: JAK1 Ki), 45.1 nM.

With `N#CCC1(n2cc(C(N)=O)c(NC(=O)C3CC3)n2)CCN(Cc2cccc(NS(=O)(=O)c3ccccc3)c2)CC1` [Example 74], the Ki in test [1] amounted to 58.7 nM; in test [2] (read-out: JAK1 Ki), 6.1 nM.

`N#CC[C@]1(n2cc(C(N)=O)c(NC(=O)C3CC3)n2)CC[C@@H](NC2CCOCC2)CC1` [Example 104]: the values for the Ki in test [1] and in test [2] were greater than 319 nM and greater than 562 nM, respectively.

On to `N#CCC1(n2cc(C(N)=O)c(NC(=O)C3CC3)n2)CCN(Cc2ccccc2)CC1` [Example 40], for which the figures for the Ki in test [1] and in test [2] (read-out: JAK1 Ki) were 96.7 nM and 7.9 nM, respectively.

On to `N#CC[C@]1(n2cc(C(N)=O)c(NC(=O)C3CC3)n2)CC[C@H](NCCC(F)(F)F)CC1` [Example 125], for which the Ki was determined as 78.3 nM in test [1] and 7.3 nM in test [2].

`CC(C)(C)OC(=O)N[C@H]1CC[C@](CC#N)(n2cc(C(N)=O)c(NC(=O)C3CC3)n2)CC1` [Example 35]: the Ki in test [1] worked out at 275 nM; in test [2], 20.2 nM.

With `N#CC[C@]1(n2cc(C(N)=O)c(NC(=O)C3CC3)n2)CC[C@@H](NCc2cccc(C#N)c2)CC1` [Example 124], the Ki in test [1] is 273 nM; in test [2], 32.7 nM.

With `N#CC[C@]1(n2cc(C(N)=O)c(NC(=O)C3CC3)n2)CC[C@H](N2CC(F)C2)CC1` [Example 181, 1-[1-(cyanomethyl)-4-(3-fluoroazetidin-1-yl)cyclohexyl]-3-(cyclopropanecarbonylamino) pyrazole-4-carboxamide], the Ki was greater than 319 nM in test [1] and greater than 562 nM in test [2].

Consider `N#CCC1(n2cc(C(N)=O)c(NC(=O)C3CC3)n2)CCN(C(=O)C2CC(F)(F)C2)CC1` [Example 168, 1-[4-(cyanomethyl)-1-(3,3-difluorocyclobutanecarbonyl)-4-piperidyl]-3-(cyclopropanecarbonylamino) pyrazole-4-carboxamide], for which the Ki was determined as 93.3 nM in test [1] and 7.5 nM in test [2] (read-out: JAK1 Ki).

As for `CS(=O)(=O)c1ccc(CN2CCC(CC#N)(n3cc(C(N)=O)c(NC(=O)C4CC4)n3)CC2)cc1` [Example 71], the Ki is greater than 319 nM in test [1] and 34.1 nM in test [2] (read-out: JAK1 Ki).

Take `N#CCC1(n2cc(C(N)=O)c(NC(=O)C3CC3)n2)CCN(Cc2ccc(OC(F)(F)F)cc2)CC1` [Example 49]: the Ki worked out at 190 nM in test [1] and 23.3 nM in test [2] (read-out: JAK1 Ki).

Turning to `N#CCC1(n2cc(C(N)=O)c(NC(=O)[C@@H]3C[C@@H]3F)n2)CCN(CC(F)(F)F)CC1` [Example 28], the Ki in test [1] is 30.9 nM; in test [2] (read-out: JAK1 Ki) it was 12.1 nM.

Take `N#CCC1(n2cc(C(N)=O)c(NC(=O)C3CC3)n2)CCN(Cc2ccc3cc[nH]c3c2)CC1` [Example 72]: the figures for the Ki in test [1] and in test [2] (read-out: JAK1 Ki) were 31.3 nM and 8.3 nM, respectively.

Regarding `N#CC[C@]1(n2cc(C(N)=O)c(NC(=O)C3CC3)n2)CC[C@H](NC2CCC(F)(F)CC2)CC1` [Example 174, 1-[1-(cyanomethyl)-4-[(4,4-difluorocyclohexyl)amino]cyclohexyl]-3-(cyclopropanecarbonylamino) pyrazole-4-carboxamide], the Ki in test [1] is greater than 319 nM; in test [2], greater than 562 nM.

Take `COC1CN([C@H]2CC[C@](CC#N)(n3cc(C(N)=O)c(NC(=O)C4CC4)n3)CC2)C1` [Example 101]: the Ki was greater than 319 nM in test [1] and greater than 562 nM in test [2].

As for `N#CCC1(n2cc(C(N)=O)c(NC(=O)C3CC3)n2)CCN(Cc2ccc(N3CCCCC3)cc2)CC1` (racemic) [Example 39], the Ki in test [1] was greater than 319 nM; in test [2], 98.2 nM.

On to `N#CCC1(n2cc(C(N)=O)c(NC(=O)C3CC3)n2)CCN(Cc2cccc(SC(F)(F)F)c2)CC1` [Example 67], for which the values for the Ki in test [1] and in test [2] (read-out: JAK1 Ki) were greater than 319 nM and 100 nM, respectively.

For `N#CCC1(n2cc(C(N)=O)c(NC(=O)C3CC3)n2)CCC2(CC1)COC2` [Example 5, 1-(7-(Cyanomethyl)-2-oxaspiro[3.5]nonan-7-yl)-3-(cyclopropanecarboxamido)-1H-pyrazole-4-carboxamide], the Ki in test [1] was found to be 189 nM; in test [2] (read-out: JAK1 Ki), 22.8 nM.

On to `N#CCC1(n2cc(C(N)=O)c(NC(=O)C3CC3)n2)CCN(Cc2cccc(C#N)c2)CC1` [Example 65], for which the Ki in test [1] was 123 nM; in test [2] (read-out: JAK1 Ki) it was 13.7 nM.

On to `N#CC[C@]1(n2cc(C(N)=O)c(NC(=O)C3CC3)n2)CC[C@@H](NCc2ccccc2Cl)CC1` [Example 118], for which the results for the Ki in test [1] and in test [2] were greater than 319 nM and greater than 562 nM, respectively.

In the case of `CN[C@H]1CC[C@@](CC#N)(n2cc(C(N)=O)c(NC(=O)C3CC3)n2)CC1` [Example 100], the Ki was greater than 319 nM in test [1] and greater than 562 nM in test [2].

`N#CCC1(n2cc(C(N)=O)c(NC(=O)[C@H]3C[C@H]3C3CC3)n2)CCN(CC(F)(F)F)CC1` (stereo in doubt) [Example 176, 1-[4-(cyanomethyl)-1-(2,2,2-trifluoroethyl)-4-piperidyl]-3-[(2-cyclopropylcyclopropanecarbonyl)amino]pyrazole-4-carboxamide]: the Ki in test [1] was greater than 319 nM; in test [2] (read-out: JAK1 Ki) it was 302 nM.

In the case of `CC(=O)Nc1nn(C2(CC#N)CCN(CC(F)(F)F)CC2)cc1C(N)=O` [Example 24], the Ki in test [1] was 76.7 nM; in test [2] (read-out: JAK1 Ki), 35.6 nM.

In the case of `CC1(C)CN([C@H]2CC[C@@](CC#N)(n3cc(C(N)=O)c(NC(=O)C4CC4)n3)CC2)C1` [Example 106], the Ki is 333 nM in test [1] and 23.3 nM in test [2].

For the compound `N#CCC1(n2cc(C(N)=O)c(NC(=O)C3CC3)n2)CCN(CCc2ccccc2)CC1` [Example 183, 1-[4-(cyanomethyl)-1-(2-phenylethyl)-4-piperidyl]-3-(cyclopropanecarbonylamino) pyrazole-4-carboxamide], the Ki in test [1] is greater than 319 nM; in test [2] (read-out: JAK1 Ki), 88.3 nM.

For `N#CCC1(n2cc(C(N)=O)c(NC(=O)[C@@H]3C[C@H]3F)n2)CCN(CC(F)(F)F)CC1` [Example 30], the inhibition constant (Ki) is 53.2 nM in test [1] and 8.6 nM in test [2] (read-out: JAK1 Ki).

In the case of `CC(c1ccccc1)N1CCC(CC#N)(n2cc(C(N)=O)c(NC(=O)C3CC3)n2)CC1` (stereo not drawn) [Example 22], the Ki in test [1] worked out at 151 nM; in test [2] (read-out: JAK1 Ki) it was 37.4 nM.

With `N#CCC1(n2cc(C(N)=O)c(NC(=O)C3CC3)n2)CCN(Cc2cccc(OC(F)F)c2)CC1` [Example 92], the inhibitory constant (Ki) in test [1] was found to be 88.1 nM; in test [2] (read-out: JAK1 Ki), 10.9 nM.

As to `N#CCC1(n2cc(C(N)=O)c(NC(=O)C3CC3(F)F)n2)CCN(CC(F)(F)F)CC1` (stereo not drawn) [Example 26], the Ki in test [1] came to 203 nM; in test [2] (read-out: JAK1 Ki), 11.5 nM.

For `N#CC[C@]1(n2cc(C(N)=O)c(NC(=O)C3CC3)n2)CC[C@H](NC2CCOCC2)CC1` [Example 103], the Ki in test [1] is greater than 319 nM; in test [2], 38 nM.

In the case of `C[C@@H]1C[C@H]1C(=O)Nc1nn(C2(CC#N)CCN(CC(F)(F)F)CC2)cc1C(N)=O` [Example 32], the Ki in test [1] was 196 nM; in test [2] (read-out: JAK1 Ki), 71.8 nM.

On to `N#CCC1(n2cc(C(N)=O)c(NC(=O)C3CC3)n2)CCC2(CC1)Oc1ccccc1O2` (racemic) [Example 34], for which the values for the Ki in test [1] and in test [2] were 276 nM and 24.8 nM, respectively.

Regarding `CS(=O)(=O)c1ccccc1CN1CCC(CC#N)(n2cc(C(N)=O)c(NC(=O)C3CC3)n2)CC1` [Example 69], the Ki in test [1] is 124 nM; in test [2] (read-out: JAK1 Ki) it was 15.2 nM.

The values are drawn from patent US11731943B2, “Therapeutic compounds, compositions and methods of use thereof” (priority 2016, dated 2023).
